This note sets out measurements from patent US8304425B2, “Pyrrolidinone, pyrrolidine-2,5-dione, pyrrolidine and thiosuccinimide derivatives, compositions and methods for treatment of cancer” (ArQule, Inc., priority 2007, dated 2012).

The term melting point denotes the temperature, or range, at which the solid turns liquid.

The subject of data set [1] is HT29 cells. Briefly: MTS assay. It is filed as cell-based. The note with it: then 48 hours drug-free medium, MTS readout. The procedure:
HT29 cells were seeded in 96-well plates at 1,800 cells/well overnight in medium with 10% FBS. The next day, cells were treated with increasing concentrations of compounds for 24 hours at 37° C. After the treatments, the compound-containing medium was removed, cells were washed twice with PBS, and incubated in drug-free medium containing 10% FBS for an additional 48 hours. After addition of MTS and PMS for 4 hours at concentrations of 2 mg/mL and 0.92 mg/mL, respectively, the results were quantitated by spectrophotometry at λ=490 nm and IC50 for each compound was determined.
On the technique in general: Tetrazolium dyes change colour on reduction, which living cells bring about.

Data set [2] addresses T1, Recombinant unphosphorylated c-Met comprising residues 1038-1346 (Homo sapiens, UniProt P08581).
T1 construct: The DNA fragment encoding the kinase domain (1038-1346) was inserted into Novagen vector pet28a; His6 (N); made in house; host or cells: E. coli BL21(DE3)RIL
The experiment in a line: c-Met 33P assay. It is filed as biochemical. The note with it: 15 minutes preincubation, 100 μM ATP, IGF-1Rtide substrate, read-out: c-Met, p33 assay. An excerpt:
cDNA of full-length c-Met purchased from Origen Technologies was used as template for PCR amplification. The DNA fragment encoding the kinase domain (1038-1346) was inserted into Novagen vector pet28a between Nco1 and Sal1 sites. The primers were designed to contain a six-histidine tag to the N-terminus. In order to express dephosphorylated c-Met kinase protein, a tyrosine phosphatase PTP1B (1-283) was sequentially ligated into the made construct between Sal1 and NotI sites. A second ribosome binding site was incorporated in the PTP1B primer after the Sal1 site. The N-terminal His-tagged proteins were expressed in Circlegrow broth (Q-Biogen). The transformed E. coli cell line BL21(DE3)RIL (Stratagene) was cultured to OD=0.8 at 37° C. and induced with 0.3 mM of IPTG for overnight at 12° C. The co-expressed protein was purified by metal-chelation chromatography followed by anion and cation columns. In brief, 4 liters of cells were lysed by sonication in 140 ml buffer containing 20 mM MOPS pH=6.5, 200 mM NaCl, 7.5% glycerol, 0.1% Igepal, supplied with 1 mM PMSF. The supernatant was obtained by centrifugation at 50,000 g for 30 minutes and followed by incubation with 8 mL of Ni-NTA His Bind resin (Novagen) at 4° C. for one hour. A second step 50 mL wash buffer (with 100 mM NaCl and 5 mM imidazole) was applied after initial wash with the lysis buffer. Protein was eluted by 200 mM imidazole pH=8.5, 100 mM NaCl and 7.5% glycerol and directly cleared by passing 10 mL QFF column. The salt concentration and the pH value of the protein flow through were adjusted to 50 mM and 7.5 by dilution, and then loaded to 1 mL SP FF column. The protein was further gel-filtered in an equilibrium buffer of 20 mM TrisHCl pH=8.5, 150 mM NaCl, 7.5% glycerol and 2 mM DTT. The monomeric unphosphorylated c-Met protein was concentrated to 30 mg/mL for storage at −80° C.
Recombinant unphosphorylated c-Met comprising residues 1038-1346 (12.5 ng) was pre-incubated with increasing concentrations of compounds for 15 minutes at room temperature. Following preincubation with compounds, 100 μM of IGF-1Rtide substrate and 100 μM ATP containing 2.5 μCi [^33P-γATP] was added to the mixture. The reaction was carried out for 30 minutes in a Reaction Buffer containing 8 mM MOPS-NaOH pH=7.0, 200 μM EDTA, 5 mM Magnesium acetate, 200 μM dithiothreitol (DTT) and 10 mM Na3VO4. The reaction was then terminated with 10 μL of 3% phosphoric acid. Ten μL were transferred onto a filterplate and were washed 3-times with 1% phosphoric acid; counts were read with a microbeta counter, and IC50 for c-Met inhibition was determined for each compound.

The test system of data set [3] is HT29 cells. Briefly: Annexin V-Fluos cell death high content imaging after met siRNA transfection. It is filed as cell-based. The note with it: increased concentrations of caspase inhibitor for 1 additional day after transfection. The procedure: Exponentially growing HT29 cells were plated in black 96-well plates at 5,000 cells/well overnight in medium with 10% FBS. The next day, cells were transiently transfected for 2 days using DharmaFECT 4 reagent with a pool of four met-specific 21-nucleotide RNA oligonucleotides forming a 19-bp duplex core with 2-nucleotide 3′ overhang in combination (Dharmacon, Inc., Lafayette, Colo.). Transfection of gapdh siRNA (Dharmacon, Inc.) and of a non-targeting siRNA under the same conditions was done in parallel as controls (Dharmacon, Inc.). Cells were then incubated in the absence or the presence of increasing concentrations of ZvAD-FMK, an irreversible caspase inhibitor for 1 additional day. Cells were incubated for at least 10 minutes in a labeling solution (10 mM HEPES, 140 mM NaCl and 6 mM CaCl2) containing […] Hoescht 33342 (blue channel; Molecular Probes/Invitrogen Corp., Natick, Mass.), 500 times diluted Annexin V-Fluos (green channel; Roche Applied Science, Indianapolis, Ind.) and 1 μg/ml propidium iodide (red channel; Roche Applied Science). High content image acquisition and analysis were carried out using a Beckman Coulter IC100 Cytometer. The program was set to take four images per well. […] Images were processed and numbers of positive cells for each channel and each condition were determined using Cytoshop 2.1 software (Beckman Coulter, Inc.). […]

Setting [4] is: Homo sapiens, HT-29, 24 hours treatment.
Setting [5] is: 24 hours treatment, read-out: HT-29, IC50.

Where a name gives a salt, the structure may show the parent alone. Read-outs that look alike come from different tables or passages of the source. Where a SMILES comes first, the peptide text is derived from it. The star is where a group is joined. Cbz = O=C(OCc1ccccc1)*; CH2F = FC*

T1 sequence (P08581 1038-1346): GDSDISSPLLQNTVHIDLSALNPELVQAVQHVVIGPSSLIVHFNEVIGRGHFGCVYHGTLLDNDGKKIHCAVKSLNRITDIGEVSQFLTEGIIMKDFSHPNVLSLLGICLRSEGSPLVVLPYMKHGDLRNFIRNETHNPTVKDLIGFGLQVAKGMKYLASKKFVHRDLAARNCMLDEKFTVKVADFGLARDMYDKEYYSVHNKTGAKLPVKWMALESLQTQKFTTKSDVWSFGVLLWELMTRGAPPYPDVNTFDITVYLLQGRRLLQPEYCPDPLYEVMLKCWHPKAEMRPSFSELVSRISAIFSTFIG

`c1ccc2c([C@@H]3CNC[C@H]3c3cn4c5c(cccc35)CCC4)c[nH]c2c1` (as salt: HCl) [Example 7, 1-[(3R,4R)-4-(1H-indol-3-yl)-pyrrolidin-3-yl]-5,6-dihydro-4H-pyrrolo[3,2,1-ij]quinoline] returned a melting point of 239 to 240 °C.
The molecule `O=C1NCC(c2cn3c4c(cccc24)CCC3)C1c1c[nH]c2ccccc12` (mixture of isomers) [Example 1, 4-(5,6-dihydro-4H-pyrrolo[3,2,1-ij]quinolin-1-yl)-3-(1H-indol-3-yl)-pyrrolidin-2-one] came in with a melting point of 260 to 262 °C. Moreover, the IC50 with HT29 cells [1] (setting [4]) is not above 1 µM. In data set [2], the IC50 was not below 10 µM.
On to `O=C1NC[C@@H](c2c[nH]c3ccccc23)[C@@H]1c1cn2c3c(cccc13)CCC2` (racemic) [Example 4, (±)-trans-3-(5,6-dihydro-4H-pyrrolo[3,2,1-ij]quinolin-1-yl)-4-(1H-indol-3-yl)-pyrrolidin-2-one], for which the melting point is 241 to 243 °C. In the data set on HT29 cells [1] (setting [4]), the IC50 was not above 1 µM. Further, the IC50 in data set [2] is 1 to 10 µM.
On to `O=C1NC[C@@H](c2cccc(C(F)(F)F)c2)[C@@H]1c1cn2c3c(cccc13)CCC2` (racemic) [Example 5, (±)-trans-3-(5,6-Dihydro-4H-pyrrolo[3,2,1-ij]quinolin-1-yl)-4-(3-trifluoromethyl-phenyl)-pyrrolidin-2-one], for which the melting point fell in the range of 82 to 85 °C. Moreover, the IC50 in the data set with HT29 cells [1] (setting [4]) is not below 10 µM.
On to `COc1cccc([C@@H]2CNC(=O)[C@H]2c2cn3c4c(cccc24)CCC3)c1` (racemic) [Example 6, (±)-trans-3-(5,6-Dihydro-4H-pyrrolo[3,2,1-ij]quinolin-1-yl)-4-(3-methoxy-phenyl)-pyrrolidin-2-one], for which the melting point lay in the range of 191 to 194 °C. In the data set with HT29 cells [1] (setting [4]), this molecule yielded an IC50 not below 10 µM.
Consider `c1ccc2c([C@@H]3CNC[C@H]3c3cn4c5c(cccc35)CCC4)c[nH]c2c1` [Example 7, 1-[(3R,4R)-4-(1H-indol-3-yl)-pyrrolidin-3-yl]-5,6-dihydro-4H-pyrrolo[3,2,1-ij]quinoline], for which the IC50 is not above 1 µM with HT29 cells [1] (setting [4]) and not below 10 µM in data set [2].
Turning to `CCNC(=O)N1C[C@@H](c2c[nH]c3ccccc23)[C@H](c2cn3c4c(cccc24)CCC3)C1` [Example 8, (3R,4R)-3-(5,6-dihydro-4H-pyrrolo[3,2,1-ij]quinolin-1-yl)-4-(1H-indol-3-yl)-pyrrolidine-1-carboxylic acid ethylamide], the melting point lay in the range of 278 to 279 °C. Besides, the IC50 in the data set with HT29 cells [1] (setting [4]) is not below 10 µM. In addition, the IC50 in data set [2] was not below 10 µM.
`O=S(=O)(c1ccccc1)N1C[C@@H](c2c[nH]c3ccccc23)[C@H](c2cn3c4c(cccc24)CCC3)C1` [Example 9, 1-[(3R,4R)-1-benzenesulfonyl-4-(1H-indol-3-yl)-pyrrolidin-3-yl]-5,6-dihydro-4H-pyrrolo[3,2,1-ij]quinoline] returned a melting point of 115 to 125 °C. In addition, the IC50 in the data set with HT29 cells [1] (setting [4]) was not below 10 µM. In data set [2], the IC50 was not below 10 µM.
On to `CC(C)S(=O)(=O)N1C[C@@H](c2c[nH]c3ccccc23)[C@H](c2cn3c4c(cccc24)CCC3)C1` [Example 10, 1-[(3R,4R)-4-(1H-indol-3-yl)-1-(propane-2-sulfonyl)-pyrrolidin-3-yl]-5,6-dihydro-4H-pyrrolo[3,2,1-ij]quinoline], for which the melting point lay in the range of 100 to 115 °C. The IC50 with HT29 cells [1] (setting [4]) was not below 10 µM. Further, the IC50 in data set [2] was not below 10 µM.
For `O=C(C1CCC1)N1C[C@@H](c2c[nH]c3ccccc23)[C@H](c2cn3c4c(cccc24)CCC3)C1` [Example 11, cyclobutyl-[(3R,4R)-3-(5,6-dihydro-4H-pyrrolo[3,2,1-ij]quinolin-1-yl)-4-(1H-indol-3-yl)-pyrrolidin-1-yl]-methanone], the melting point was 253 to 255 °C. Also, the IC50 in the data set with HT29 cells [1] (setting [4]) is not below 10 µM. For the same molecule, the IC50 in data set [2] was not below 10 µM.
The molecule `CC(C)(C)CC(=O)N1C[C@@H](c2c[nH]c3ccccc23)[C@H](c2cn3c4c(cccc24)CCC3)C1` [Example 12, 1-[(3R,4R)-3-(5,6-dihydro-4H-pyrrolo[3,2,1-ij]quinolin-1-yl)-4-(1H-indol-3-yl)-pyrrolidin-1-yl]-3,3-dimethyl-butan-1-one] came in with a melting point of 202 to 204 °C. This molecule came in with an IC50 in the data set on HT29 cells [1] (setting [4]) not below 10 µM. In addition, the IC50 in data set [2] is not below 10 µM.
On to `COC(=O)C[C@H](NC(=O)[C@H](C)NC(=O)[C@@H](NC(=O)OCc1ccccc1)C(C)C)C(=O)CF` [ZvAD-FMK] (Cbz-Val-Ala-Asp(OMe)-CH2F), for which the “levels of cell death in met siRNA transfected cells” value in the data set with HT29 cells [3] is recorded as “decreased the levels of cell death”.
Turning to “(3R,4R)-4-(5,6-dihydro-4H-pyrrolo[3,2,1-ij]quinolin-1-yl)-3-(1H-indol-3-yl)-5-thioxo-pyrrolidin-2-one and (3R,4R)-3-(5,6-dihydro-4H-pyrrolo[3,2,1-ij]quinolin-1-yl)-4-(1H-indol-3-yl)-5-thioxo-pyrrolidin-2-one (1/1 mixture) [Example 2]”, the IC50 (in the data set with HT29 cells [1] (setting [5]); in data set [2]) was not above 1 µM each time.
In the case of “(3R,4R)-4-(5,6-dihydro-4H-pyrrolo[3,2,1-ij]quinolin-1-yl)-3-(1H-indol-3-yl)-pyrrolidin-2-one and (3R,4R)-3-(5,6-dihydro-4H-pyrrolo[3,2,1-ij]quinolin-1-yl)-4-(1H-indol-3-yl)-pyrrolidin-2-one (1/1 mixture) [Example 3]”, the IC50 was not above 1 µM in the data set on HT29 cells [1] (setting [5]) and not below 10 µM in data set [2].
